Tests used:
[1] = test system: MDA-MB-231 cells; experiment: Intracellular ROS production with H2DCFDA probe; assay type: cell-based, human
Method: Cyclometalated complexes of various metals, including Ir(III), Rh(III), Pt(II), and Au(III), have been reported to induce overproduction of reactive oxygen species (ROS), inducing oxidative stress leading to cell death. […] Following the protocol used for cytotoxicity assays, cells were incubated with 3 for 4 h in the dark at 37 °C (dark conditions) or incubated with 3 for 4 h in the dark at 37 °C, followed by 5 min of irradiation at 450 nm (irradiation conditions). ROS production was measured using the nonspecific ROS probe 2′,7′-dichlorodihydrofluorescein diacetate (H2DCFDA) (Figures and S36).
11 ROS production upon incubation of MDA-MB-231 cells for 4 h at 37 °C (dark) or for 4 h at 37 °C + 5 min irradiation at 450 nm (irradiation) with complex 3 (5, 2, 1, or 0.5 μM), expressed as the mean fluorescence intensity normalized to DMSO negative controls. […]
Triple-negative breast cancer cells MDA-MB-231 were seeded in 6-well plates at a concentration of 150 000 cells/well in 1.5 mL DMEM (Dulbecco’s modified Eagle’s medium) containing GlutaMax I supplemented with 10% FBS. […] Microscopy images were recorded in brightfield and GFP filter modes using an EVOS M5000 microscope with a 10× objective. Cell confluency was assessed on the brightfield images using EVOS M5000 microscope software, and quantification of green fluorescence was performed using Fiji software. […]

[2] = target: T1, bovine serum albumin (BSA) (Bos taurus, UniProt P02769); experiment: Quenching of intrinsic BSA fluorescence (Stern–Volmer, binding constant); conditions: 5 μM BSA, 20 mM PB pH 7.4, 1% DMSO, 1 h room temperature
Method: In order to further characterize the interactions between complex 3 and BSA, we monitored the evolution of the intrinsic emission band of BSA upon excitation at 290 nm, attributed to the Trp213 residue located in the hydrophobic domain IIA, in the presence of an increasing concentration of complex 3. Briefly, the emission spectra of solutions containing 5 μM BSA dissolved in 20 mM PB buffer (pH 7.4) containing 1% DMSO incubated for 1 h at room temperature with concentrations of 3 ranging from 1 to 100 μM (Figure S33A) were recorded. […] The kinetics of the intermolecular quenching processes follow the Stern–Volmer eq : 2 F0/F=1+Ksv[3] where F 0 is the fluorescence intensity of pure BSA, F is the fluorescence intensity after the addition of 3, and K SV is the Stern–Volmer dynamic quenching efficiency (Figure S33B). K SV (eq ) can be expressed as the product of the quenching rate k q and the average lifetime of the fluorophore τ0 in the excited state, which is typically 10^–8 s. 3 KSV=kqτ0
The linear Stern–Volmer plot can be indicative of either a dynamic or static quenching mechanism.
It is further possible to determine the number of binding sites (n) and the binding constant (Kb) by plotting log((F0-F)/F) vs log([3]) (Figure S33C) according to eq . 4 log(F0−F/F)=logKb+nlog[3] […]

[3] = target: T1, bovine serum albumin (BSA); experiment: Emission and UV–vis titration of complex 3 with BSA; assay type: binding; conditions: 10 μM complex, BSA 0–50 μM, H2O/DMSO 95/5, λexc 450 nm
Method: The possible interaction of these Pt(II) complexes with the model protein bovine serum albumin (BSA) was studied by fluorescence and UV–vis spectroscopy. […] The effect of increasing the amount of BSA (from 0 to 50 μM) on solutions of complex 3 in mixtures of H2O/DMSO (95/5 v/v) while keeping the concentration of 3 (10 μM) constant was evaluated. Upon addition of BSA (3/BSA 1:0.25), a slight blue shift of the emission band from 510 to 495 nm is observed, and a clear switch-on of the monomer phosphorescence (^3ILCT), as a structured band slightly blue-shifted (ca. 574 nm) in relation to the complex in DMSO is observed. The intensity of this latter band reaches a maximum when the 3/BSA ratio was ca 1:1 (Figure ). […] In particular, the decrease in fluorescence emission and the switch-on of the monomer phosphorescence can be attributed to the binding of 3 to the hydrophobic pockets of the protein, which increases the rigidity of its environment and decreases the nonradiative constant.
For the BSA binding experiment, solutions of complex 3 with BSA in mixtures of DMSO/H2O (5/95 v/v) were prepared, keeping the concentration of 3 (10 μM) constant and increasing the amount of BSA (from 0 to 50 μM). […] The fluorescence intensities were then measured at λexc = 450 nm, and the emission fluorescence spectra were recorded in the wavelength range λ = 400–800 nm.

T1 sequence (P02769 25-607): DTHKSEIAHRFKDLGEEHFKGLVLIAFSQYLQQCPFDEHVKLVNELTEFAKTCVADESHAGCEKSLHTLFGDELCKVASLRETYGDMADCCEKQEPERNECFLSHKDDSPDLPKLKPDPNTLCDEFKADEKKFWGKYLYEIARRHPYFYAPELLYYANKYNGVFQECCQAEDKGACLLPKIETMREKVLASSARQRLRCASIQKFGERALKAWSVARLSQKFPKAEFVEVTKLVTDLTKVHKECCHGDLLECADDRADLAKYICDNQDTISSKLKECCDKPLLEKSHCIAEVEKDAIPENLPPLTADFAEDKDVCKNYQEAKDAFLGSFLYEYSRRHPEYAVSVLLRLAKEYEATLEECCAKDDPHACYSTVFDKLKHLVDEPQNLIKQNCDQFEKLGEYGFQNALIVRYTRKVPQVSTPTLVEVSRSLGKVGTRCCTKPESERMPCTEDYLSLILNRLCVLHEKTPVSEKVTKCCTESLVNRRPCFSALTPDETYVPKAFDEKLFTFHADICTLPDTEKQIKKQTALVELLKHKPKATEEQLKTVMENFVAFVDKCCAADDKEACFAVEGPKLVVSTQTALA

## [Pt(Me2N-pbt)(3-OH-pic-κN,O)] [Complex 3]
[1]; MDA-MB-231, 0.5, 1, 2 or 5 μM, 4 h at 37 °C in the dark
  ROS production (H2DCFDA green fluorescence), dark: dose-dependent increase of green fluorescence
[1]; MDA-MB-231, 4 h at 37 °C + 5 min irradiation at 450 nm
  ROS production (H2DCFDA green fluorescence), irradiation versus dark: statistically significant increase of ROS production
[2]
  number of binding sites (n) on BSA: 0.9 ± 0.07
[2]; λexc 290 nm, τ0 10^–8 s
  quenching rate kq of BSA fluorescence: 2.21 ± 0.12 × 10^12 M^–1.s^–1
[3]
  interaction with BSA (changes of emission and UV–vis spectra): interacts strongly with BSA

From PMC12176268, “Structural Features and Photophysical and Antiproliferative Properties of Me2N‑pbt-Cycloplatinated Complexes with Picolinate Ligands” (Inorganic Chemistry, 2025)
